The values that follow come from patent US20260183297A1, “SELECTION OF PATIENTS FOR THE TREATMENT OF FADS1-MEDIATED DISEASES OR DISORDERS USING FADS-1 INHIBITORS” (AMGEN INC., priority 2022, published 2026).

Marks after values point to notes of the source that are not given here.

Assay [1] is described as follows: Fatty acid concentration and composition of plasma lipid subfractions (GC) of Compound A-treated DIO mice. It counts as in vivo. To be noted: DIO mouse plasma, 30 mg/kg, mean.
Assay [2] can be described thus: Biomarker analysis of tissue and plasma samples (Luminex: adiponectin, leptin, PAI-1, MCP-1). The settings on record: DIO mice, 30 mg/kg. The format is in vivo, mouse. How it is done: Frozen liver and adipose tissue samples were powdered with stainless steel Bessman Tissue Pulverizers (Spectrum Laboratory Products, Gardena, CA) per the manufacturer's instructions and the resulting tissue powders were stored in cryotubes at −80° C. until extraction. A portion of each powdered tissue sample was extracted using an in-house protein extraction buffer (50-mM Tris buffer, pH 7.4, 0.1 M NaCl and 0.1% Triton X-100) containing a protease inhibitor cocktail (Millipore Sigma, Burlington, MA). Samples were homogenized with a MagNA Lyser (Roche Diagnostics, Indianapolis, IN) for 30 seconds at 6500 rpm, placed at 4° C. for 30 minutes and then spun in a refrigerated microcentrifuge at 10,000 rpm for 10 minutes. The resulting supernatants were removed to clean 1.5 ml microfuge tubes and spun again at 14,000 rpm for 15 minutes. The final supernatants were aliquoted into labeled cluster tubes and protein concentrations were determined using a standard BCA Protein Assay (Thermo Fisher Scientific, Waltham, MA) prior to storage at −80° C.
Separate aliquots of tissue protein extracts and terminal plasma samples were used to quantify levels of various analytes. Multiple adipokines and hormones (MCP-1, leptin, insulin, and PAI-1) were assessed using a multiplex mouse-specific Luminex assay while adiponectin was evaluated using a single-plex mouse-specific Luminex assay (Millipore Sigma, Burlington, MA). All the commercial assays were performed per the manufacturer's instructions. Data were acquired on a FlexMap 3D (Luminex Corporation, Austin. TX). Tissue protein expression levels were normalized per mg of total protein.

The next assay addresses T1, mouse FADS1 (Mus musculus, UniProt Q920L1).
T1 sequence (Q920L1 1-447): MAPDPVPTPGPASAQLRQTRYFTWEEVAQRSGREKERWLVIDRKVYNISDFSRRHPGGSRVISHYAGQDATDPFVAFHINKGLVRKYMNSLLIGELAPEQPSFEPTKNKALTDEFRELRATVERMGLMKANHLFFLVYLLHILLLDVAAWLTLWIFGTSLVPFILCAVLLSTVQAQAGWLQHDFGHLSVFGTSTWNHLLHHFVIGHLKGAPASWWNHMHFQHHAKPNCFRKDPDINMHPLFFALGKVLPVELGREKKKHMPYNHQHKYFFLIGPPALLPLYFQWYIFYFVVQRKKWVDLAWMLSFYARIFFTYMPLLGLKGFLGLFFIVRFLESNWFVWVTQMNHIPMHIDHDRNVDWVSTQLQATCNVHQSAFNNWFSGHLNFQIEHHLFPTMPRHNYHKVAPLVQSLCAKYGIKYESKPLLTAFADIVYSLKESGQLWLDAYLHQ
Nature of the assay: Mouse FADS1 cell-based assay. The settings on record: in vitro; read-out: half-maximal inhibitory concentration (IC50) against mouse FADS1. As to the method:
HEK 293 cells in Dulbecco's Modified Eagle's medium (DMEM), 10% fetal bovine serum (FBS), 1× penicillin-streptomycin-glutamine (PSG) were mixed with FADS1 BacMam or FADS2 BacMam reagents at multiplicity of infection (MOI) ratio of 25 and plated in a in 96-well poly-D-lysine-coated plate. Plates were incubated in a 37° C., 5% CO2 for 24 hours. Cells were washed with DPBS and cells were incubated with […] of compound dilution in DPBS at 5% CO2, 37° C. for 20 minutes. Ten L of the substrate, ^13C5-DGLA (FADS1), or 13C-LA (FADS2) diluted in DPBS were added to the cells and incubated at 5% CO2, 37° C. for 30 minutes (FADS1) or 45 minutes (FADS2). Cells were then washed with DPBS and 50 μL of 2N NaOH were added to each well and incubated in a 65° C. oven for 1 hour for the saponification reaction. After cooling to room temperature, 22 μl of formic acid was added followed by the addition of 113 μl of acetonitrile with 1.5 μM ALA-d14 as the internal standard. Samples were then subjected to LC-MS/MS detection for the following analytes for the FADS1 reaction: ^13C5-DGLA and ^13C5-AA or the following analytes for the FADS2 reaction: ^13C18-LA, ^13C18-GLA, ^13C18-DGLA and ^13C18-AA. […]
The analyte peak areas were quantified by using the Analyst software (SCIEX, Framingham, MA). The percent of substrate to product conversion relative to untreated control were calculated (percent of control [POC]). […]

Assay [3] in a line: Indirect calorimetry studies (CLAMS). The format is in vivo, mouse. The settings on record: DIO mice, 30 mg/kg. As to the method:
Twenty-four Fads1 KO and 24 WT mice entered the Comprehensive Laboratory Animal Monitoring System (CLAMS; Columbus Instruments, Columbus, Ohio—Oxymax Model 2018, 0233-004M, Oxymax for Windows v5.53 software, Hardware configuration 190395) before starting the HFD feeding phase, and again at 6 and 12 weeks on HFD. […] Body weight was measured daily, and food consumption was measured biweekly. Animals reentered the CLAMS on days 17-21 and on days 38-42. The volume of oxygen consumption (VO2), carbon dioxide production (VCO2), RER, and energy expenditure (HEAT) were measured during that period.

In the case of `COc1ccn2c(=O)c(-c3cnn(CC(F)(F)C(F)(F)F)c3)c(C(F)(F)F)nc2c1` [Compound A, 8-methoxy-3-(1-(2,2,3,3,3-pentafluoropropyl)-1H-pyrazol-4-yl)-2-(trifluoromethyl)-4H-pyrido[1,2-a]pyrimidin-4-one], the “C20:4n6 concentration, Cholesterol ester” value in assay [1] (Cholesterol ester) is recorded as 72.4*** μg mL^−1. The “C16:1n7t concentration, Phospholipids” value in assay [1] (Phospholipids) was determined as 1.2 µg/mL. Moreover, in assay [1] (Total lipids), the “C16:1n7t concentration, Total” value is 3.0 µg/mL; the “C20:2n6 concentration, Total” value stood at 9.9 µg/mL; the “C24:0 concentration, Total” value came out at 1.9 µg/mL. In assay [2] (EPI WAT), the adiponectin levels result is given as “elevated”. Further, in assay [2] (EPI and ING WAT), the MCP-1 levels result is “trends towards lower” and the PAI-1 levels result is on record as “trends towards lower”. Besides, in assay [2] (plasma, EPI and ING WAT), the leptin levels entry is given as “decreased”. Moreover, on mouse FADS1, the IC50 was determined as 4 nM. Moreover, in assay [3] (42 days, vs vehicle), the body weight result is reported as “significantly reduced body weight”, the carbon dioxide production result is recorded as “no differences”, the energy expenditure result is reported as “no differences” and the oxygen consumption entry is on record as “no differences”. For the same molecule, the “light cycle RER” value in assay [3] (at 17-23 days and 38-42 days) was “decreased”. In assay [3] (vs vehicle-treated mice), the “activity in the dark cycle” value is recorded as “trended to be more active”.
